# Measured values from PubChem BioAssay (NCI).
#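 96-well plates; 48 h exposure; 5 concentrations. Endpoints by linear interpolation between flanking doses. Not reached: highest tested concentration assigned. At the TGI there is no net growth.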
# Columns and labels:
# Assay in all cases: growth of human tumour cells (NCI), 48 h
# SK-OV-3 ovarian = system: SK-OV-3 ovarian
# EKVX NSCLC = system: EKVX NSCLC
# SF-268 CNS = system: SF-268 CNS
# SF-539 CNS = system: SF-539 CNS
# A498 renal = system: A498 renal
# SK-MEL-5 melanoma = system: SK-MEL-5 melanoma
# NCI-H522 lung = system: NCI-H522 lung
# MOLT-4 leukemia = system: MOLT-4 leukemia
# MDA-N = system: MDA-N
# HL-60(TB) leukemia = system: HL-60(TB) leukemia
# LOX IMVI melanoma = system: LOX IMVI melanoma
# A549 NSCLC = system: A549 NSCLC
# KM12 colon = system: KM12 colon
# SNB-75 CNS = system: SNB-75 CNS
# RPMI-8226 leukemia = system: RPMI-8226 leukemia
# HOP-62 NSCLC = system: HOP-62 NSCLC
# HCT-15 colon = system: HCT-15 colon
# MALME-3M melanoma = system: MALME-3M melanoma
# OVCAR-5 ovarian = system: OVCAR-5 ovarian
# SK-MEL-2 melanoma = system: SK-MEL-2 melanoma
# UACC-257 melanoma = system: UACC-257 melanoma
# OVCAR-3 ovarian = system: OVCAR-3 ovarian
# RXF 393 renal = system: RXF 393 renal
# COLO 205 colon = system: COLO 205 colon
# NCI-H226 lung = system: NCI-H226 lung
# SNB-19 CNS = system: SNB-19 CNS
# PC-3 prostate = system: PC-3 prostate
# UO-31 renal = system: UO-31 renal
# NCI-H460 lung = system: NCI-H460 lung
# HCC-2998 colon = system: HCC-2998 colon
# HS 578T breast = system: HS 578T breast
# U251 CNS = system: U251 CNS
# HT29 colon = system: HT29 colon
# SN12C renal = system: SN12C renal
# DU-145 prostate = system: DU-145 prostate
# K-562 leukemia = system: K-562 leukemia
# NCI/ADR-RES ovarian = system: NCI/ADR-RES ovarian
# HCT-116 colon = system: HCT-116 colon
# UACC-62 melanoma = system: UACC-62 melanoma
# TK-10 renal = system: TK-10 renal
# T-47D breast = system: T-47D breast
# ACHN renal = system: ACHN renal
# OVCAR-8 ovarian = system: OVCAR-8 ovarian
# CCRF-CEM leukemia = system: CCRF-CEM leukemia
# BT-549 breast = system: BT-549 breast
# SF-295 CNS = system: SF-295 CNS
# IGROV1 ovarian = system: IGROV1 ovarian
# M14 melanoma = system: M14 melanoma
# SR leukemia = system: SR leukemia
# MDA-MB-231 breast = system: MDA-MB-231 breast
# 786-0 renal = system: 786-0 renal
# SW-620 colon = system: SW-620 colon
# SK-MEL-28 melanoma = system: SK-MEL-28 melanoma
# NCI-H23 lung = system: NCI-H23 lung
# MDA-MB-435 = system: MDA-MB-435
# CAKI-1 renal = system: CAKI-1 renal
# MCF7 breast = system: MCF7 breast
# OVCAR-4 ovarian = system: OVCAR-4 ovarian
smiles,measurement,setting,value
COc1ccccc1NC(=O)O/N=C(/Cl)C(C)C,TGI,SK-OV-3 ovarian,32.7 µM
same,TGI,EKVX NSCLC,29.6 µM
same,TGI,SF-268 CNS,32.5 µM
same,TGI,SF-539 CNS,35.9 µM
same,TGI,A498 renal,29.9 µM
same,TGI,SK-MEL-5 melanoma,24.1 µM
same,TGI,NCI-H522 lung,3.37 µM
same,TGI,MOLT-4 leukemia,4.5 µM
same,TGI,MDA-N,26.8 µM
same,TGI,HL-60(TB) leukemia,3.6 µM
same,TGI,LOX IMVI melanoma,6.75 µM
same,TGI,A549 NSCLC,34.4 µM
same,TGI,KM12 colon,39.3 µM
same,TGI,SNB-75 CNS,27.1 µM
same,TGI,RPMI-8226 leukemia,4.71 µM
same,TGI,HOP-62 NSCLC,17.1 µM
same,TGI,HCT-15 colon,27 µM
same,TGI,MALME-3M melanoma,7.37 µM
same,TGI,OVCAR-5 ovarian,35.8 µM
same,TGI,SK-MEL-2 melanoma,31 µM
same,TGI,UACC-257 melanoma,26.8 µM
same,TGI,OVCAR-3 ovarian,16.3 µM
same,TGI,RXF 393 renal,28.4 µM
same,TGI,COLO 205 colon,5.09 µM
same,TGI,NCI-H226 lung,41.5 µM
same,TGI,SNB-19 CNS,> 56.4 µM
same,TGI,PC-3 prostate,33.2 µM
same,TGI,UO-31 renal,32.8 µM
same,TGI,NCI-H460 lung,37.5 µM
same,TGI,HCC-2998 colon,30.1 µM
same,TGI,HS 578T breast,67.9 µM
same,TGI,U251 CNS,30.6 µM
same,TGI,HT29 colon,15.3 µM
same,TGI,SN12C renal,31.7 µM
same,TGI,DU-145 prostate,33.2 µM
same,TGI,K-562 leukemia,10.9 µM
same,TGI,NCI/ADR-RES ovarian,35.5 µM
same,TGI,HCT-116 colon,29.3 µM
same,TGI,UACC-62 melanoma,37.4 µM
same,TGI,TK-10 renal,26.5 µM
same,TGI,T-47D breast,59.2 µM
same,TGI,ACHN renal,17.4 µM
same,TGI,OVCAR-8 ovarian,28.6 µM
same,TGI,CCRF-CEM leukemia,3.57 µM
same,TGI,BT-549 breast,21.6 µM
same,TGI,SF-295 CNS,29.1 µM
same,TGI,IGROV1 ovarian,32.7 µM
same,TGI,M14 melanoma,20.3 µM
same,TGI,SR leukemia,4.73 µM
same,TGI,MDA-MB-231 breast,18.3 µM
same,TGI,786-0 renal,24.9 µM
same,TGI,SW-620 colon,3.39 µM
same,TGI,SK-MEL-28 melanoma,27.8 µM
same,TGI,NCI-H23 lung,28.8 µM
CC(=O)NC(Cc1ccc(OP(=O)(OCc2ccc([N+](=O)[O-])o2)N(C)CCCCCl)cc1)C(=O)NC(C)c1ccc(OCC2CCCCC2)c(C(N)=O)c1 (centres undefined),TGI,SK-OV-3 ovarian,37.3 µM
same,TGI,SF-268 CNS,6.48 µM
same,TGI,SF-539 CNS,4.35 µM
same,TGI,A498 renal,35.4 µM
same,TGI,SK-MEL-5 melanoma,3.08 µM
same,TGI,NCI-H522 lung,12 µM
same,TGI,MDA-MB-435,4.81 µM
same,TGI,MOLT-4 leukemia,26.3 µM
same,TGI,MDA-N,5.22 µM
same,TGI,HL-60(TB) leukemia,6.83 µM
same,TGI,CAKI-1 renal,> 100 µM
same,TGI,LOX IMVI melanoma,3.77 µM
same,TGI,A549 NSCLC,18.2 µM
same,TGI,KM12 colon,8.71 µM
same,TGI,RPMI-8226 leukemia,3.96 µM
same,TGI,HOP-62 NSCLC,23.7 µM
same,TGI,HCT-15 colon,> 100 µM
same,TGI,MALME-3M melanoma,5.65 µM
same,TGI,OVCAR-5 ovarian,21.2 µM
same,TGI,SK-MEL-2 melanoma,9.2 µM
same,TGI,UACC-257 melanoma,3.78 µM
same,TGI,OVCAR-3 ovarian,5.04 µM
same,TGI,RXF 393 renal,5.68 µM
same,TGI,COLO 205 colon,3.68 µM
same,TGI,NCI-H226 lung,21.2 µM
same,TGI,SNB-19 CNS,14.9 µM
same,TGI,PC-3 prostate,10.5 µM
same,TGI,UO-31 renal,45.2 µM
same,TGI,NCI-H460 lung,15.2 µM
same,TGI,HCC-2998 colon,3.42 µM
same,TGI,HS 578T breast,4.65 µM
same,TGI,U251 CNS,6.49 µM
same,TGI,HT29 colon,4.83 µM
same,TGI,SN12C renal,6.53 µM
same,TGI,DU-145 prostate,15.2 µM
same,TGI,K-562 leukemia,> 100 µM
same,TGI,NCI/ADR-RES ovarian,> 100 µM
same,TGI,HCT-116 colon,5.3 µM
same,TGI,UACC-62 melanoma,5.34 µM
same,TGI,MCF7 breast,5.23 µM
same,TGI,TK-10 renal,32 µM
same,TGI,T-47D breast,6.31 µM
same,TGI,ACHN renal,33.4 µM
same,TGI,OVCAR-8 ovarian,21.8 µM
same,TGI,OVCAR-4 ovarian,11.9 µM
same,TGI,CCRF-CEM leukemia,10.1 µM
same,TGI,SF-295 CNS,16.9 µM
same,TGI,IGROV1 ovarian,7.01 µM
same,TGI,M14 melanoma,5.49 µM
same,TGI,SR leukemia,6.42 µM
same,TGI,MDA-MB-231 breast,4.79 µM
same,TGI,786-0 renal,12.4 µM
same,TGI,SW-620 colon,14.2 µM
same,TGI,SK-MEL-28 melanoma,4.08 µM
same,TGI,NCI-H23 lung,6.3 µM
